In US20240101599A1, “PEPTIDE, CELL GROWTH PROMOTER, PROTEIN PRODUCTION PROMOTER, CULTURE MEDIUM, CELL GROWTH METHOD USING PEPTIDE, AND PROTEIN PRODUCTION METHOD USING PEPTIDE” (Maruhachi Muramatsu, Inc., priority 2020, published 2024):
Like-named read-outs stand apart in the source and are kept apart here. Peptide text beside a SMILES is read from it.

Columns and labels:
[1] = tested on: CHO DP-12; assay: Cell growth test and protein production test when peptide was added to total synthesis medium; format: cell-based; conditions: for Viability, Average / Viable cell count, Average / Amount of protein produced, Average: average n=3; for Viability, Average / Viable cell count, Average / Amount of protein produced, Average / Viability, 1 / Viable cell count, 1 / Amount of protein produced, 1 / Viability, 2 / Viable cell count, 2 / Amount of protein produced, 2 / Viability, 3 / Viable cell count, 3 / Amount of protein produced, 3: ASF104 basal medium, 5 days; for Amount of protein produced, Average / Amount of protein produced, 1 / Amount of protein produced, 2 / Amount of protein produced, 3: ELISA; for Viability, 1 / Viable cell count, 1 / Amount of protein produced, 1: replicate 1; for Viability, 2 / Viable cell count, 2 / Amount of protein produced, 2: replicate 2; for Viability, 3 / Viable cell count, 3 / Amount of protein produced, 3: replicate 3
Description: A peptide having the sequence of Gly-Glu-Lys (GEK) was synthesized to prepare peptide solutions at the concentrations of 0 mM, 2.6 mM, 5.1 mM, 10 mM, 20.5 mM, and 41 mM, and an amount of 1/10 of the total culture medium volume was added to each well immediately before the cell culture test such that final concentrations were 0 mM, 0.26 mM, 0.51 mM, 1.0 mM, 2.05 mM, and 4.1 mM, respectively. In the present test, CHO DP-12 (ATCC, Cat. No. CRL-12445) acclimated to an ASF104 basal medium in which 200 nM of methotrexate and 2 μg/mL of insulin were blended in an ASF104 culture medium (Ajinomoto Co., Inc.), which is a total synthesis medium for CHO, was used. A cell suspension prepared such that a cell concentration was 4×10^4 cells/mL was seeded in a 24-well plate at 450 μL/well and cultured in an incubator at 37° C. and 5% CO2 for 24 hours. As a culture medium, an ASF104 basal medium in which 200 nM of methotrexate and 2 μg/mL of insulin were blended in an ASF104 culture medium (Ajinomoto Co., Inc.), which is a total synthesis medium for CHO, was used.
After 24 hours, 50 μL of the prepared peptide solution was added to each well to perform culture for 5 days. The cells were recovered after culture to count the viable cell count.
• ASF104 basal medium • GEK (0.26 mM)+ASF104 basal medium • GEK (0.51 mM)+ASF104 basal medium • GEK (1.0 mM)+ASF104 basal medium • GEK (2.05 mM)+ASF104 basal medium • GEK (4.1 mM)+ASF104 basal medium
100 μL of the culture medium supernatant was collected in a 1.5 mL tube to quantitatively determine the amount of protein produced. The supernatant was diluted to measure the amount of protein produced by ELISA.
In order to analyze the cells, the culture medium in each well was recovered in a 1.5 mL tube to be rinsed with 200 μL of PBS, and the rinsed liquid was also recovered in the same 1.5 mL tube. Thereafter, 100 μL of 0.25% trypsin/EDTA was added to perform incubation for 1 minute. 100 μL of a trypsin inhibitor was added to recover in the same 1.5 mL tube. After rinsing with 200 μL of PBS to recover the rinsed liquid in the same 1.5 mL tube, a centrifugation operation was performed. Suspension was performed in 100 μL of PBS to measure the viable cell count and the cell viability by a trypan blue staining method using a cell counter.
The above preparation, culture, and measurement were performed with n=3. Table 28 and FIG. 27 show the viable cell count in each peptide solution, Table 29 and FIG. 28 show the cell viability in each peptide solution, and Table 30 and FIG. 29 show the amount of protein produced.

[2] = tested on: CHO DP-12; conditions: 5 days; for Viable cell count: n=3; for Amount of protein produced: n=3, ELISA
Description: A cell suspension prepared such that CHO DP-12 (ATCC, Cat. No. CRL-12445) was at 2×10^4 cells/mL was seeded in a 24-well plate at 1×10^4 cells/well (500 μL) and cultured in an incubator at 37° C. and 5% CO2 for 24 hours. As a culture medium, a DMEM basal medium in which 200 nM of methotrexate and 2 μg/mL of insulin were blended in a DMEM culture medium (Gibco) containing 10% FBS was used.
After removing the culture medium from each well and washing with the DMEM basal medium (500 μL), each peptide solution (500 μL) was dispensed to each well (total 500 μL/well) to perform culture for 5 days.
After replacing each culture medium with an evaluation medium of the following test section, culture was performed in an incubator at 37° C. and 5% CO2 for 5 days.
• DMEM basal medium • AGK (1 mM)+DMEM basal medium • AGK (2 mM)+DMEM basal medium • Medium supplemented with vitamins and nucleic acids (DMEM basal medium+vitamin+nucleic acid) • AGK (1 mM)+medium supplemented with vitamins and nucleic acids • AGK (2 mM)+medium supplemented with vitamins and nucleic acids
After 5 days of culture, the total amount of the culture medium in each well of the 24-well plate was recovered, a centrifugation operation (5,000 rpm, for 5 minutes) was performed, and the supernatant was separately recovered to measure the amount of produced protein by ELISA.
The cells adhered to the wells after recovering the culture medium were detached by trypsin treatment and suspended again in the DMEM basal medium containing 10% FBS to measure the viable cell count and the viability by a trypan blue staining method using a cell counter.

[3] = 1 mM AGK + medium supplemented with vitamins and nucleic acids
[4] = 2 mM AGK + medium supplemented with vitamins and nucleic acids

SMILES: NCCCC[C@H](NC(=O)[C@H](CCC(=O)O)NC(=O)CN)C(=O)O [GEK, Gly-Glu-Lys] (H-Gly-Glu-Lys-OH; N-terminus and C-terminus assumed)
- Viability, Average ([1]; 0.26 mM GEK): 97.0%
- Viable cell count, Average ([1]; 0.26 mM GEK): 1.6 ×10^6 cells/well
- Amount of protein produced, Average ([1]; 0.26 mM GEK): 12.5 mg/L
- Viability, 1 ([1]; 0.26 mM GEK): 96%
- Viable cell count, 1 ([1]; 0.26 mM GEK): 1.6 ×10^6 cells/well
- Amount of protein produced, 1 ([1]; 0.26 mM GEK): 12.2 mg/L
- Viability, 2 ([1]; 0.26 mM GEK): 99%
- Viable cell count, 2 ([1]; 0.26 mM GEK): 1.5 ×10^6 cells/well
- Amount of protein produced, 2 ([1]; 0.26 mM GEK): 12.6 mg/L
- Viability, 3 ([1]; 0.26 mM GEK): 96%
- Viable cell count, 3 ([1]; 0.26 mM GEK): 1.6 ×10^6 cells/well
- Amount of protein produced, 3 ([1]; 0.26 mM GEK): 12.7 mg/L
- Viability, Average ([1]; 0.51 mM GEK): 96.7%
- Viable cell count, Average ([1]; 0.51 mM GEK): 1.6 ×10^6 cells/well
- Amount of protein produced, Average ([1]; 0.51 mM GEK): 12.9 mg/L
- Viability, 1 ([1]; 0.51 mM GEK): 95%
- Viable cell count, 1 ([1]; 0.51 mM GEK): 1.5 ×10^6 cells/well
- Amount of protein produced, 1 ([1]; 0.51 mM GEK): 12.8 mg/L
- Viability, 2 ([1]; 0.51 mM GEK): 98%
- Viable cell count, 2 ([1]; 0.51 mM GEK): 1.7 ×10^6 cells/well
- Amount of protein produced, 2 ([1]; 0.51 mM GEK): 13.2 mg/L
- Viability, 3 ([1]; 0.51 mM GEK): 97%
- Viable cell count, 3 ([1]; 0.51 mM GEK): 1.6 ×10^6 cells/well
- Amount of protein produced, 3 ([1]; 0.51 mM GEK): 12.6 mg/L
- Viability, Average ([1]; 1.0 mM GEK): 96.7%
- Viable cell count, Average ([1]; 1.0 mM GEK): 1.5 ×10^6 cells/well
- Amount of protein produced, Average ([1]; 1.0 mM GEK): 13.1 mg/L
- Viability, 1 ([1]; 1.0 mM GEK): 97%
- Viable cell count, 1 ([1]; 1.0 mM GEK): 1.3 ×10^6 cells/well
- Amount of protein produced, 1 ([1]; 1.0 mM GEK): 12.4 mg/L
- Viability, 2 ([1]; 1.0 mM GEK): 97%
- Viable cell count, 2 ([1]; 1.0 mM GEK): 1.8 ×10^6 cells/well
- Amount of protein produced, 2 ([1]; 1.0 mM GEK): 12.8 mg/L
- Viability, 3 ([1]; 1.0 mM GEK): 96%
- Viable cell count, 3 ([1]; 1.0 mM GEK): 1.4 ×10^6 cells/well
- Amount of protein produced, 3 ([1]; 1.0 mM GEK): 14.1 mg/L
- Viability, Average ([1]; 2.05 mM GEK): 96.7%
- Viable cell count, Average ([1]; 2.05 mM GEK): 1.9 ×10^6 cells/well
- Amount of protein produced, Average ([1]; 2.05 mM GEK): 17.0 mg/L
- Viability, 1 ([1]; 2.05 mM GEK): 96%
- Viable cell count, 1 ([1]; 2.05 mM GEK): 1.9 ×10^6 cells/well
- Amount of protein produced, 1 ([1]; 2.05 mM GEK): 17.5 mg/L
- Viability, 2 ([1]; 2.05 mM GEK): 96%
- Viable cell count, 2 ([1]; 2.05 mM GEK): 2.2 ×10^6 cells/well
- Amount of protein produced, 2 ([1]; 2.05 mM GEK): 17.7 mg/L
- Viability, 3 ([1]; 2.05 mM GEK): 98%
- Viable cell count, 3 ([1]; 2.05 mM GEK): 1.4 ×10^6 cells/well
- Amount of protein produced, 3 ([1]; 2.05 mM GEK): 15.6 mg/L
- Viability, Average ([1]; 4.1 mM GEK): 97.0%
- Viable cell count, Average ([1]; 4.1 mM GEK): 1.7 ×10^6 cells/well
- Amount of protein produced, Average ([1]; 4.1 mM GEK): 13.3 mg/L
- Viability, 1 ([1]; 4.1 mM GEK): 97%
- Viable cell count, 1 ([1]; 4.1 mM GEK): 1.8 ×10^6 cells/well
- Amount of protein produced, 1 ([1]; 4.1 mM GEK): 13.9 mg/L
- Viability, 2 ([1]; 4.1 mM GEK): 98%
- Viable cell count, 2 ([1]; 4.1 mM GEK): 1.8 ×10^6 cells/well
- Amount of protein produced, 2 ([1]; 4.1 mM GEK): 13.2 mg/L
- Viability, 3 ([1]; 4.1 mM GEK): 96%
- Viable cell count, 3 ([1]; 4.1 mM GEK): 1.5 ×10^6 cells/well
- Amount of protein produced, 3 ([1]; 4.1 mM GEK): 12.8 mg/L
- amount of protein produced as compared to the basal medium (total synthesis medium) ([1]; in words): the amount of protein produced also tended to increase
- cell viability as compared to the basal medium (total synthesis medium) ([1]; in words): the cell viability was similarly high
- viable cell count as compared to the basal medium (total synthesis medium) ([1]; in words): the viable cell count increased

SMILES: C[C@H](N)C(=O)NCC(=O)N[C@@H](CCCCN)C(=O)O [AGK, Ala-Gly-Lys] (H-Ala-Gly-Lys-OH; N-terminus and C-terminus assumed)
- Viable cell count ([2]; 1 mM AGK + DMEM basal medium): 11.97 ×10^4cells/well
- Amount of protein produced ([2]; 1 mM AGK + DMEM basal medium): 7.5 mg/L
- Viable cell count [2, 3]: 34.65 ×10^4cells/well
- Amount of protein produced [2, 3]: 15.74 mg/L
- Viable cell count ([2]; 2 mM AGK + DMEM basal medium): 11.73 ×10^4cells/well
- Amount of protein produced ([2]; 2 mM AGK + DMEM basal medium): 7.4 mg/L
- Viable cell count [2, 4]: 47.07 ×10^4cells/well
- Amount of protein produced [2, 4]: 14.34 mg/L
